By Tmax is commonly meant the time at which the peak concentration occurs. In general, Cmax refers to the maximum level reached in the sampled fluid or tissue.

The source of these data is paper PMC6631119, “Nasal Administration and Plasma Pharmacokinetics of Parathyroid Hormone Peptide PTH 1-34 for the Treatment of Osteoporosis” (Pharmaceutics, 2019).

Like-named read-outs stand apart in the source and are kept apart here. A value given as a limit tells only on which side of the number the result lay.

The conditions of series [1]: conscious rats, nasal liquid formulation with Solutol HS15 (10%), first 2 h after administration; cited from earlier work.
The conditions of series [2]: human volunteers, nasal powder formulations with Solutol HS15 compared to subcutaneous injection of hGH; cited from earlier work. The text has this: With the aim of improving upon the pharmacokinetics of the liquid nasal spray in humans, our continued research evaluated a bioadhesive powder formulation within a large animal (ovine) model. This is a model known to be highly representative of intranasal drug delivery that closely replicates the clinical findings. […] Likewise, we have published o ...

Series [3] in a line: Healthy human volunteer plasma pharmacokinetics of PTH 1-34 (open cross-over, ELISA). The format is in vivo. To be noted: human. The protocol: An open cross-over clinical IMP (investigative medicinal product) study was conducted in seven healthy female subjects aged over 55 years (mean age 67.7, range 58 to 81 years). Each participant provided informed consent in accordance with ethical committee requirements and good clinical practice. Pre-study screening assessments were carried out within 21 days of the participants receiving their first dose (Supplementary Materials: Section S1). Inclusion and exclusion criteria were applied (Supplementary Materials: Section S2). Participants were admitted to the study centre on the morning of dosing, having abstained from alcohol and smoking for at least 24 h previously and fasted from midnight. Participants were given a light meal on arrival. A cannula was then positioned in the participant’s arm or hand to facilitate the collection of blood samples. The pre-dose sample was taken. Participants received a single subcutaneous injection of 20 μg teriparatide into the abdomen at their first trial visit. Following a seven day wash out period, each participant self-administered 90 μg PTH 1-34 from the nasal spray formulation using the Rexam SP270 nasal spray device; the patients had previously been trained in operation of the Rexam device. Any episodes of sneezing after administration of the nasal formulation were recorded. The nasal spray formulation contained Tc-99m-DTPA, 3–5 MBq per Rexam SP270 nasal spray dose, resulting in an effective radiation dose of less than 0.14 mSv to each participant.
Following either subcutaneous or intranasal dosing, 10 mL blood samples (Becton Dickinson sodium heparin) were taken at 5, 15, 30, 60 120, 180, 240, 300 and 360 min. After each sample was taken, the cannula was flushed with 10 mL 0.9% saline. Blood was stored on ice and centrifuged within 30 min to prepare plasma (4 °C, 1100–1300 g, 10 min). These samples were stored at −20 °C before dispatching to Simbec Research Ltd. (Merthyr Tydfil, UK) for quantification by validated ELISA, in compliance with The UK Good Laboratory Practice Regulations 1999 (Statutory Instrument No. 310 6) and subsequent amendment, OECD Principles of Good Laboratory Practice (Paris 1998) and EC Commission Directive 2004/10/EC of February 2004.
Pharmacokinetic data were analysed using Phoenix® WinNonlin® 5.1 (Certara USA, Inc., Princeton, NJ, USA) from quantified PTH 1-34 in the plasma, using recorded sampling times. Summary statistics (mean, median, SD, coefficient of variation [CV%], minimum, maximum, n) and the following plasma pharmacokinetic parameters were calculated: • Cmax • Tmax • Terminal half-life (t1/2) • AUC to 2 h (AUC0–2h) • AUC to last measured time point (AUClast) and corresponding Frel for nasal formulation
A general note: In an ELISA, binding on a coated surface is turned into a signal by an enzyme label.

The conditions of series [4]: cited from earlier work.
[5] abbreviates: human, subcutaneous injection, estimated.

Take “hGH: human growth hormone (MW 22kDa), given nasally with Solutol HS15 in earlier studies”: the values for the relative bioavailability in series [1] and in series [2] were 49% and “about 3%”, respectively.
Turning to `CC[C@H](C)[C@H](NC(=O)[C@H](CCC(=O)O)NC(=O)[C@H](CO)NC(=O)[C@@H](NC(=O)[C@@H](N)CO)C(C)C)C(=O)N[C@@H](CCC(N)=O)C(=O)N[C@@H](CC(C)C)C(=O)N[C@@H](CCSC)C(=O)N[C@@H](Cc1cnc[nH]1)C(=O)N[C@@H](CC(N)=O)C(=O)N[C@@H](CC(C)C)C(=O)NCC(=O)N[C@@H](CCCCN)C(=O)N[C@@H](Cc1cnc[nH]1)C(=O)N[C@@H](CC(C)C)C(=O)N[C@@H](CC(N)=O)C(=O)N[C@@H](CO)C(=O)N[C@@H](CCSC)C(=O)N[C@@H](CCC(=O)O)C(=O)N[C@@H](CCCN=C(N)N)C(=O)N[C@H](C(=O)N[C@@H](CCC(=O)O)C(=O)N[C@@H](Cc1c[nH]c2ccccc12)C(=O)N[C@@H](CC(C)C)C(=O)N[C@@H](CCCN=C(N)N)C(=O)N[C@@H](CCCCN)C(=O)N[C@@H](CCCCN)C(=O)N[C@@H](CC(C)C)C(=O)N[C@@H](CCC(N)=O)C(=O)N[C@@H](CC(=O)O)C(=O)N[C@H](C(=O)N[C@@H](Cc1cnc[nH]1)C(=O)N[C@@H](CC(N)=O)C(=O)N[C@@H](Cc1ccccc1)C(=O)O)C(C)C)C(C)C` [teriparatide], in series [3] (female, plasma, sc, 20 ug, healthy female volunteers aged over 55 y, single 20 μg teriparatide subcutaneous injection into abdomen (Forsteo pen), plasma ELISA, mean of n = 7), the Tmax was 21.4 min. Further, the AUC(0-t) in series [3] (female, plasma, sc, 20 ug, healthy female volunteers aged over 55 y, single 20 μg teriparatide subcutaneous injection into abdomen (Forsteo pen), plasma ELISA, mean of n = 7, read-out: AUC0–2h (converted)) was 0.29 ng·h/mL. For the same molecule, the AUC(0-t) in series [3] (female, plasma, sc, 20 ug, healthy female volunteers aged over 55 y, single 20 μg teriparatide subcutaneous injection into abdomen (Forsteo pen), plasma ELISA, mean of n = 7, read-out: AUC0–last (converted)) was 0.345 ng·h/mL. Besides, in series [3] (female, plasma, sc, 20 ug, healthy female volunteers aged over 55 y, single 20 μg teriparatide subcutaneous injection into abdomen (Forsteo pen), plasma ELISA, mean of n = 7, read-out: Cmax), the Cmax worked out at 0.253 ng/mL. Also, the “time by which teriparatide concentrations returned to zero” value in series [3] (20 μg teriparatide subcutaneous injection) is on record as at most 6 h. In addition, the “elimination t1/2” value in series [3] (20 μg teriparatide subcutaneous injection, mean) is listed as “approximately 1 h”. Moreover, in series [3] (sc, 20 ug, healthy female volunteers aged over 55 y, single 20 μg teriparatide subcutaneous injection into abdomen (Forsteo pen), plasma ELISA, mean of n = 7, read-out: t½), the half-life is 64.8 min. In series [4] (human subjects, subcutaneous injection into the abdominal wall, intravenous injection 100%), the “absolute bioavailability of subcutaneous injection” value is given as “up to 95%”. Also, in series [4] (setting [5]), the “prolongation in the time to reach peak concentration (Tmax), thigh as opposed to abdomen” value was 1.5 min; the “reduction in maximum plasma teriparatide concentrations (Cmax), thigh as opposed to abdomen” value is 18%; the “slower rate of absorption, injection into the thigh as opposed to the abdomen” value was 21%.
